ChEMBL document CHEMBL5226366, “Synthesis and Structure Revision of Naturally Occurring Homoisoflavane (+)-Dracaeconolide B” (2023)

Key:
HUVEC = assay: Antiangiogenic activity against HUVEC cells assessed as inhibition of cell growth incubated for 44 hrs by Alamar Blue fluorescence assay; assay type: functional; conditions: Homo sapiens
[1] = Antiangiogenic activity against human HREC cells assessed as inhibition of cell growth incubated for 44 hrs by Alamar Blue fluorescence assay; assay type: functional

Structure (SMILES) | GI50 (HUVEC) [µM] | GI50 [1] [µM]
COc1cc(O)c(OC)c2c1C[C@@H](Cc1ccc(O)cc1)CO2 | > 100 | > 100
COc1cc2c(c(O)c1OC)CC(Cc1ccc(O)cc1)CO2 (stereo unspecified) | 90.1 | 3.47
COc1cc(OC)c2c(c1O)OCC(Cc1ccc(O)cc1)C2 (stereo unspecified) | > 100 | 28.3
COc1c(O)cc2c(c1OC)C[C@H](Cc1ccc(O)cc1)CO2 | > 100 | > 100
COc1cc(O)c2c(c1OC)OCC(Cc1ccc(O)cc1)C2 (stereo unspecified) | > 100 | > 100
COc1cc2c(c(OC)c1O)CC(Cc1ccc(O)cc1)CO2 (stereo unspecified) | > 100 | 0.96
COc1c(O)cc2c(c1OC)CC(Cc1ccc(O)cc1)CO2 (stereo unspecified) | > 100 | > 100
COc1c(O)cc2c(c1OC)C[C@@H](Cc1ccc(O)cc1)CO2 | > 100 | > 100
